Assay results taken from ChEMBL document CHEMBL1201862, “PubChem BioAssay data set” (2004).
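Grown in 96-well plates, cells were treated for 48 hours with each compound at five concentrations. Insufficient inhibition: endpoint recorded as highest concentration tested. Abbreviation: GI50, concentration required for 50% inhibition of growth.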 Active and inactive are the calls of the source. No stated cut-off is given here; in the data, active = GI50 up to about 1.1 µM and inactive = higher.

How the values were obtained:
Test in all cases: NCI tumour cell line growth inhibition, 48 h
[1] = system: Malme-3M
[2] = system: TK-10
[3] = system: OVCAR-3
[4] = system: NCI-H460
[5] = system: K562
[6] = system: SK-MEL-2
[7] = system: SN12C
[8] = system: MOLT-4
[9] = system: EKVX
[10] = system: HOP-62
[11] = system: UO-31
[12] = system: M14
[13] = system: T47D
[14] = system: OVCAR-5
[15] = system: SNB-19
[16] = system: SK-OV-3
[17] = system: MDA-MB-435
[18] = system: 786-0
[19] = system: HCT-15
[20] = system: UACC-257
[21] = system: SK-MEL-28
[22] = system: RPMI-8226
[23] = system: HOP-92
[24] = system: DU-145
[25] = system: LOX IMVI
[26] = system: PC-3
[27] = system: SF-539
[28] = system: HCT-116
[29] = system: Hs-578T
[30] = system: SK-MEL-5
[31] = system: KM12
[32] = system: CAKI-1
[33] = system: NCI/ADR-RES
[34] = system: U-251
[35] = system: SR
[36] = system: MDA-N
[37] = system: SF-268
[38] = system: NCI-H522
[39] = system: MCF7
[40] = system: IGROV-1
[41] = system: SW-620
[42] = system: HL-60
[43] = system: RXF 393
[44] = system: SF-295
[45] = system: HCC 2998
[46] = system: NCI-H23
[47] = system: COLO 205
[48] = system: A549
[49] = system: A498
[50] = system: HT-29
[51] = system: CCRF-CEM
[52] = system: UACC-62
[53] = system: NCI-H226
[54] = system: ACHN
[55] = system: OVCAR-4
[56] = system: SNB-75
[57] = system: OVCAR-8
[58] = system: MDA-MB-231

For `CN(C)CCNC(=O)Cn1ccc(=O)c2cc([N+](=O)[O-])ccc21`, the GI50 [1] was > 100 µM (inactive), the GI50 [2] was > 100 µM (inactive) and the GI50 [3] was > 100 µM (inactive). For the same compound, the GI50 [4] was > 100 µM (inactive), the GI50 [5] was > 100 µM (inactive) and the GI50 [6] was > 100 µM (inactive). The GI50 [7] was > 100 µM (inactive), the GI50 [8] was > 100 µM (inactive) and the GI50 [9] was > 100 µM (inactive). The GI50 [10] was > 100 µM (inactive), the GI50 [11] was > 100 µM (inactive) and the GI50 [12] was > 100 µM (inactive). The GI50 [13] was > 100 µM (inactive), the GI50 [14] was > 100 µM (inactive) and the GI50 [15] was > 100 µM (inactive). The GI50 [16] was > 100 µM (inactive), the GI50 [17] was > 100 µM (inactive) and the GI50 [18] was > 100 µM (inactive). For the same compound, the GI50 [19] was over 100 µM, the GI50 [20] was > 100 µM (inactive) and the GI50 [21] was > 100 µM (inactive). The GI50 [22] was > 100 µM (inactive), the GI50 [23] was > 100 µM (inactive) and the GI50 [24] was > 100 µM (inactive). The GI50 [25] was > 100 µM (inactive), the GI50 [26] was > 100 µM (inactive) and the GI50 [27] was > 100 µM (inactive). For the same compound, the GI50 [28] was > 100 µM (inactive), the GI50 [29] was > 100 µM (inactive) and the GI50 [30] was > 100 µM (inactive). The GI50 [31] was > 100 µM (inactive), the GI50 [32] was > 100 µM (inactive) and the GI50 [33] was > 100 µM (inactive). The GI50 [34] was > 100 µM (inactive), the GI50 [35] was > 100 µM (inactive) and the GI50 [36] was > 100 µM (inactive). The GI50 [37] was > 100 µM (inactive), the GI50 [38] was > 100 µM (inactive) and the GI50 [39] was > 100 µM (inactive). For the same compound, the GI50 [40] was > 100 µM (inactive), the GI50 [41] was > 100 µM (inactive) and the GI50 [42] was > 100 µM (inactive). For the same compound, the GI50 [43] was > 100 µM (inactive), the GI50 [44] was > 100 µM (inactive) and the GI50 [45] was > 100 µM (inactive). For the same compound, the GI50 [46] was > 100 µM (inactive), the GI50 [47] was > 100 µM (inactive) and the GI50 [48] was > 100 µM (inactive). For the same compound, the GI50 [49] was > 100 µM (inactive), the GI50 [50] was > 100 µM (inactive) and the GI50 [51] was > 100 µM (inactive). The GI50 [52] was > 100 µM (inactive), the GI50 [53] was > 100 µM (inactive) and the GI50 [54] was > 100 µM (inactive).

`C[C@]12CCC(O)CC1=CC[C@@H]1[C@@H]2CC[C@]2(C)C(=O)[C@H](n3ccnc3)C[C@@H]12` (some centres undefined) was tested, and the GI50 [1] was > 100 µM (inactive), the GI50 [2] was > 100 µM (inactive) and the GI50 [3] was > 100 µM (inactive). For the same compound, the GI50 [4] was 40.9 µM (inactive), the GI50 [5] was 38 µM (inactive) and the GI50 [6] was 27 µM (inactive). For the same compound, the GI50 [7] was > 100 µM (inactive), the GI50 [8] was 17.9 µM (inactive) and the GI50 [9] was > 100 µM (inactive). The GI50 [11] was 75.9 µM (inactive), the GI50 [12] was 77.6 µM (inactive) and the GI50 [14] was > 100 µM (inactive). For the same compound, the GI50 [15] was 79.1 µM (inactive), the GI50 [17] was 43.1 µM (inactive) and the GI50 [18] was > 100 µM (inactive). The GI50 [19] was over 100 µM, the GI50 [20] was 40.4 µM (inactive) and the GI50 [55] was 89.1 µM (inactive). For the same compound, the GI50 [21] was 79.4 µM (inactive), the GI50 [56] was > 100 µM (inactive) and the GI50 [22] was 21.2 µM (inactive). The GI50 [23] was > 100 µM (inactive), the GI50 [24] was > 100 µM (inactive) and the GI50 [25] was 44.5 µM (inactive). The GI50 [26] was 28.6 µM (inactive), the GI50 [27] was 58.6 µM (inactive) and the GI50 [28] was 54.5 µM (inactive). For the same compound, the GI50 [29] was > 100 µM (inactive), the GI50 [30] was 16.2 µM (inactive) and the GI50 [31] was 38.9 µM (inactive). For the same compound, the GI50 [32] was > 100 µM (inactive), the GI50 [33] was 39.8 µM (inactive) and the GI50 [34] was 61.9 µM (inactive). For the same compound, the GI50 [35] was 32.4 µM (inactive), the GI50 [36] was 57.4 µM (inactive) and the GI50 [37] was > 100 µM (inactive). For the same compound, the GI50 [38] was 33.5 µM (inactive), the GI50 [39] was 35.8 µM (inactive) and the GI50 [40] was > 100 µM (inactive). The GI50 [41] was > 100 µM (inactive), the GI50 [42] was 11.6 µM (inactive) and the GI50 [43] was > 100 µM (inactive). For the same compound, the GI50 [44] was 94.8 µM (inactive), the GI50 [46] was 33.8 µM (inactive) and the GI50 [47] was 28.7 µM (inactive). The GI50 [48] was 91.4 µM (inactive), the GI50 [49] was > 100 µM (inactive) and the GI50 [57] was 37.4 µM (inactive). The GI50 [50] was 28.2 µM (inactive), the GI50 [58] was > 100 µM (inactive) and the GI50 [51] was 22.1 µM (inactive). For the same compound, the GI50 [52] was 47.5 µM (inactive), the GI50 [53] was > 100 µM (inactive) and the GI50 [54] was > 100 µM (inactive).

For `Nc1nc(O)nc2sc3c(c12)CCCC3`, the GI50 [1] was 37.8 µM (inactive), the GI50 [2] was 92 µM (inactive) and the GI50 [4] was 56.4 µM (inactive). The GI50 [5] was 61.4 µM (inactive), the GI50 [6] was > 100 µM (inactive) and the GI50 [7] was 73.3 µM (inactive). The GI50 [8] was 99.3 µM (inactive), the GI50 [9] was 7.48 µM (inactive) and the GI50 [10] was 98.4 µM (inactive). The GI50 [11] was 81.7 µM (inactive), the GI50 [12] was 41.1 µM (inactive) and the GI50 [13] was 64.9 µM (inactive). The GI50 [14] was > 100 µM (inactive), the GI50 [15] was 55.8 µM (inactive) and the GI50 [16] was > 100 µM (inactive). The GI50 [18] was > 100 µM (inactive), the GI50 [19] was over 100 µM and the GI50 [20] was 63.1 µM (inactive). For the same compound, the GI50 [55] was 38.5 µM (inactive), the GI50 [21] was 25.2 µM (inactive) and the GI50 [56] was 19.7 µM (inactive). The GI50 [22] was 38.5 µM (inactive), the GI50 [23] was > 100 µM (inactive) and the GI50 [24] was > 100 µM (inactive). For the same compound, the GI50 [26] was > 100 µM (inactive), the GI50 [27] was 42.8 µM (inactive) and the GI50 [28] was 57 µM (inactive). For the same compound, the GI50 [29] was 23.6 µM (inactive), the GI50 [30] was > 100 µM (inactive) and the GI50 [31] was 33.3 µM (inactive). The GI50 [33] was > 100 µM (inactive), the GI50 [34] was > 100 µM (inactive) and the GI50 [35] was 51.5 µM (inactive). The GI50 [37] was 90.4 µM (inactive), the GI50 [38] was 46.6 µM (inactive) and the GI50 [39] was 44.5 µM (inactive). For the same compound, the GI50 [40] was 87.7 µM (inactive), the GI50 [41] was > 100 µM (inactive) and the GI50 [42] was 88.5 µM (inactive). For the same compound, the GI50 [43] was > 100 µM (inactive), the GI50 [45] was 82 µM (inactive) and the GI50 [46] was > 100 µM (inactive). For the same compound, the GI50 [47] was 39.5 µM (inactive), the GI50 [48] was 84.3 µM (inactive) and the GI50 [57] was > 100 µM (inactive). For the same compound, the GI50 [50] was 68.2 µM (inactive), the GI50 [58] was 98.4 µM (inactive) and the GI50 [51] was 41.3 µM (inactive). The GI50 [52] was 32.1 µM (inactive), the GI50 [53] was 4.57 µM (inactive) and the GI50 [54] was > 100 µM (inactive).
